In a melting point compilation (Tetko et al.; mined from patent text by program, amines drawn as free bases though some values may be those of a salt):

melting point | SMILES
138 to 140 °C | Cc1cc(Oc2ccc(S(C)(=O)=O)nc2)ccc1[N+](=O)[O-]
132 to 143 °C | O=C(O)Cc1ccc2c(c1)C(=O)c1ccccc1CN2
160 to 161 °C | COc1ccc(F)cc1C1CC(=O)CC(=O)C1
236 to 237 °C | O=C(O)Cc1c(C(=O)c2cc3ccccc3cn2)[nH]c2cc(Cl)ccc12
194 to 197 °C | O=S(Cc1cccc(C(F)(F)F)c1)c1nc2cnccc2[nH]1 (configuration not stated)
128 to 130 °C | COCCNc1cc(Cl)nc(-c2ccccc2)n1
113 °C | O=c1[nH]c(=O)n(COC(CO)CO)cc1Cc1cccc(OCc2ccccc2)c1
260 to 263 °C | O=c1[nH]cc(-c2ccccc2)c2ncccc12
105 to 108 °C | ClCCCN1c2ccccc2OCOc2ccc(Cl)cc21
160 to 161 °C | COC(=O)/C(=C/c1cccc([N+](=O)[O-])c1)CC(=O)O
122 to 125 °C | CCC(Oc1ccc(-n2nnc3cc(C(F)(F)F)ccc32)cc1)C(=O)O (configuration not stated)
68 to 69 °C | CC(=O)c1cnc2c(n1)C(C)(C)CCC2(C)C
143 to 144 °C | COc1cccc2c1C(C)(C)C(=O)N2
155 to 157 °C | CCC(C(=O)Nc1c(C)cccc1C)N(C)C (configuration not stated)
123 to 124 °C | COCCNC(N)=Nc1nc(-c2cccc(CNC(C)=O)c2)cs1
85 to 87 °C | CC(C)(C)OC(=O)CN1C(=O)C(N)C1CCc1ccco1 (configuration not stated)
133 to 134 °C | CC(C)(C)OC(=O)NC(Cc1ccccc1F)C(=O)N1CCSC1 (configuration not stated)
151 to 152 °C | Cc1nc(N2CCC(NCCC3CC3)C2=O)sc1C(=O)NCc1ccc(F)cc1 (configuration not stated)
117 to 120 °C | COc1ccc(N2CCN(c3c(C)c(C)c4c(c3C)CC(C)(Cn3cccn3)O4)CC2)cc1 (configuration not stated)

melting point | SMILES
137 to 139 °C | CCOC(=O)n1c(SC(F)(F)C(F)F)nc(-c2ccc(F)cc2)c1-c1ccc(F)cc1
180 °C | COc1ncccc1Oc1cc(-n2c(=O)cc(C(F)(F)F)n(C)c2=O)c(F)cc1Cl
111 °C | CCOC(=O)C1=C(C)NN=C(CC)C1c1ccc(Cl)cc1 (configuration not stated)
148 to 150 °C | CC(C)CCN1C(=O)C(N)C(=O)Nc2ccccc21 (configuration not stated)
304 °C | CCCn1c(=O)[nH]c2ccc(C(=O)c3ncc4ccccn34)cc2c1=O
132 to 134 °C | CN1CC(CCn2cccn2)Oc2ncccc2C1=O (configuration not stated)
188 to 191 °C | COc1ccc(-c2cnc(S)nc2-c2ccc(OC)cc2)cc1
146 to 148 °C | CCOc1cccc(-c2ccnc3c(C(=O)c4cccs4)cnn23)c1
163 to 167 °C | CNc1c(NCCSCc2csc(CN(C)C)n2)c(=O)c1=O
105 °C | CCCCCCCCCCCCCCCCCCNC(=O)c1ccc(O)cc1
244 to 245 °C | O=C(O)c1ccc(Oc2c(-c3ccc(O)cc3)c(C(F)(F)F)cc3ccccc23)cc1
98 to 99 °C | CCCc1c(OCCCCCCc2ccccc2CCC(=O)O)ccc2c1OCCC2=O
96.5 to 99 °C | CCCCC(=O)Nc1ccc(N)cc1Cl
76 to 77 °C | COC(=O)C1(CC(CCCl)=C(C)C)C(=O)C=C(OC(C)C)CC1C (configuration not stated)
174 to 175 °C | N#Cc1cccc2c1CC(=O)c1cc(F)ccc1S2
51 °C | Cc1cc(OS(=O)(=O)C(F)(F)F)ccc1S(C)(=O)=O
111 to 112 °C | O=C(COc1cccc2cccnc12)c1ccc(Cl)cc1
199 to 204 °C | O=C(O)CCc1cc2cc(F)c(Cl)cc2n1S(=O)(=O)c1ccccc1
> 250 °C | O=C(c1ccoc1)c1ccc2[nH]c(=O)cc(-c3cccc(Cl)c3)c2c1

SMILES | melting point
Cc1ccc(S(=O)(=O)N=[N+]=[N-])cc1 | 79 to 82.5 °C
Nc1ccc(Br)cc1C(=O)c1ccccc1 | 109 to 110 °C
CCN1CCc2c(Br)ccc([N+](=O)[O-])c2C1 | 52 to 53 °C
O=C1CCC2(F)C3Cc4ccc(O)c5c4C2(CCN3CC2CC2)C1O5 (configuration not stated) | 188 to 190 °C
